Measurements published in ChEMBL document CHEMBL6074623, “Carbamoylation at C-8 position of natural 3-arylcoumarin scaffold for the discovery of novel PARP-1 inhibitors with potent anticancer activity” (Eur J Med Chem, 2024).
Calls of active or inactive are those of the source. The rule behind the calls is not given here.

Columns and labels:
SUM149PT [1] = experiment: Induction of cell cycle arrest in human SUM149PT cells assessed as accumulation of cells at G2/M phase at 2 uM incubated for 24 hrs by propidium iodide/RNase A staining based flow cytometry (reference value: 5.54 %); assay type: functional
SUM149PT [2] = experiment: Induction of apoptosis in human SUM149PT cells assessed as late apoptotic cells at 2 uM incubated for 24 hrs by Annexin V-FITC/PI staining based flow cytometry (reference value: 2.45 %); assay type: functional
SUM149PT [3] = experiment: Induction of cell cycle arrest in human SUM149PT cells assessed as accumulation of cells at G0/G1 phase at 2 uM incubated for 48 hrs by propidium iodide/RNase A staining based flow cytometry (reference value: 69.2 %); assay type: functional
SUM149PT [4] = experiment: Induction of apoptosis in human SUM149PT cells assessed as necrotic cells at 2 uM incubated for 24 hrs by Annexin V-FITC/PI staining based flow cytometry (reference value: 1.27 %); assay type: functional
SUM149PT [5] = experiment: Induction of cell cycle arrest in human SUM149PT cells assessed as accumulation of cells at G2/M phase at 0.1 uM incubated for 48 hrs by propidium iodide/RNase A staining based flow cytometry (reference value: […] %); assay type: functional
SUM149PT [6] = experiment: Induction of apoptosis in human SUM149PT cells assessed as downregulation of BCL-2 expression incubated for 48 hrs by Western blotting analysis; assay type: functional, cell-based
SUM149PT [7] = experiment: Induction of apoptosis in human SUM149PT cells assessed as upregulation of BAX expression incubated for 48 hrs by Western blotting analysis; assay type: functional, cell-based
SUM149PT [8] = experiment: Induction of ROS in human SUM149PT cells assessed as increase in fluorescence intensity at 2 uM incubated for 48 hrs by DCFH-DA staining based confocal laser scanning microscopic analysis relative to niraparib; assay type: functional, cell-based
Mitochondrial membrane [9] = experiment: Induction of mitochondrial membrane potential loss in human SUM149PT cells incubated for 48 hrs by JC-1 staining based confocal laser scanning microscopic analysis
SUM149PT [10] = experiment: Induction of apoptosis in human SUM149PT cells assessed as early apoptotic cells at 2 uM incubated for 24 hrs by Annexin V-FITC/PI staining based flow cytometry (reference value: 2.59 %); assay type: functional
SUM149PT [11] = experiment: Induction of apoptosis in human SUM149PT cells assessed as late apoptotic cells at 0.1 uM incubated for 24 hrs by Annexin V-FITC/PI staining based flow cytometry (reference value: 2.45 %); assay type: functional
CAPAN-1 [12] = experiment: Antiproliferative activity against human CAPAN-1 cells assessed as inhibition of cell growth incubated for 48 hrs by MTT assay; assay type: functional, cell-based; conditions: CAPAN-1, 48 h
SUM149PT [13] = experiment: Induction of apoptosis in human SUM149PT cells assessed as necrotic cells at 0.1 uM incubated for 48 hrs by Annexin V-FITC/PI staining based flow cytometry (reference value: 0.51 %); assay type: functional
SUM149PT [14] = experiment: Antiproliferative activity against human SUM149PT cells assessed as inhibition of cell growth at 5 uM incubated for 48 hrs by MTT assay relative to control; assay type: functional
SUM149PT [15] = experiment: Induction of apoptosis in human SUM149PT cells assessed as late apoptotic cells at 2 uM incubated for 48 hrs by Annexin V-FITC/PI staining based flow cytometry (reference value: 1.13 %); assay type: functional
SUM149PT [16] = experiment: Induction of cell cycle arrest in human SUM149PT cells assessed as accumulation of cells at S phase at 0.1 uM incubated for 24 hrs by propidium iodide/RNase A staining based flow cytometry (reference value: 16.4 %); assay type: functional
SUM149PT [17] = experiment: Induction of apoptosis in human SUM149PT cells assessed as viable cells at 2 uM incubated for 24 hrs by Annexin V-FITC/PI staining based flow cytometry (reference value: 93.7 %); assay type: functional; conditions: read-out: Activity
Mitochondrial membrane [18] = experiment: Induction of mitochondrial membrane potential loss in human SUM149PT cells at 2 uM incubated for 48 hrs by JC-1 staining based confocal laser scanning microscopic analysis relative to niraparib
SUM149PT [19] = experiment: Induction of cell cycle arrest in human SUM149PT cells assessed as accumulation of cells at S phase at 2 uM incubated for 24 hrs by propidium iodide/RNase A staining based flow cytometry (reference value: 16.4 %); assay type: functional
SUM149PT [20] = experiment: Induction of apoptosis in human SUM149PT cells assessed as necrotic cells at 0.5 uM incubated for 48 hrs by Annexin V-FITC/PI staining based flow cytometry (reference value: 0.51 %); assay type: functional
SUM149PT [21] = experiment: Induction of cell cycle arrest in human SUM149PT cells assessed as accumulation of cells at G2/M phase at 0.1 uM incubated for 24 hrs by propidium iodide/RNase A staining based flow cytometry (reference value: 5.54 %); assay type: functional
SUM149PT [22] = experiment: Induction of apoptosis in human SUM149PT cells assessed as upregulation of caspase-3 expression incubated for 48 hrs by Western blotting analysis; assay type: functional, cell-based
HCC1937 = experiment: Antiproliferative activity against human HCC1937 cells assessed as inhibition of cell growth at 20 uM incubated for 48 hrs by MTT assay relative to control; assay type: functional
SUM149PT [23] = experiment: Induction of apoptosis in human SUM149PT cells assessed as early apoptotic cells at 0.1 uM incubated for 24 hrs by Annexin V-FITC/PI staining based flow cytometry (reference value: 2.59 %); assay type: functional
SUM149PT [24] = experiment: Induction of apoptosis in human SUM149PT cells assessed as necrotic cells at 0.1 uM incubated for 24 hrs by Annexin V-FITC/PI staining based flow cytometry (reference value: 1.27 %); assay type: functional
SUM149PT [25] = experiment: Induction of cell cycle arrest in human SUM149PT cells assessed as accumulation of cells at S phase at 0.5 uM incubated for 48 hrs by propidium iodide/RNase A staining based flow cytometry (reference value: 18.7 %); assay type: functional
SUM149PT [26] = experiment: Induction of apoptosis in human SUM149PT cells assessed as early apoptotic cells at 2 uM incubated for 48 hrs by Annexin V-FITC/PI staining based flow cytometry (reference value: 2.28 %); assay type: functional
SUM149PT [27] = experiment: Induction of cell cycle arrest in human SUM149PT cells assessed as accumulation of cells at G2/M phase at 0.5 uM incubated for 48 hrs by propidium iodide/RNase A staining based flow cytometry (reference value: […] %); assay type: functional
SUM149PT [28] = experiment: Induction of cell cycle arrest in human SUM149PT cells assessed as accumulation of cells at G0/G1 phase at 0.5 uM incubated for 24 hrs by propidium iodide/RNase A staining based flow cytometry (reference value: 72.8 %); assay type: functional
CAPAN-1 [29] = experiment: Antiproliferative activity against human CAPAN-1 cells assessed as inhibition of cell growth at 20 uM incubated for 48 hrs by MTT assay relative to control; assay type: functional

For COc1cccc(-c2cc3cc(F)cc(C(N)=O)c3oc2=O)c1, the Activity (SUM149PT [1]) was 36.8%, the Activity (SUM149PT [2]) was 6.87% and the Activity (SUM149PT [3]) was 16.9%. For the same molecule, the Activity (SUM149PT [4]) was 6.61%, the Activity (SUM149PT [5]) was 29.1% and the Activity (SUM149PT [6]) was “Dose-dependent-effect”. The Activity (SUM149PT [7]) was “Dose-dependent-effect”, the Activity (SUM149PT [8]) was “Active” and the Activity (Mitochondrial membrane [9]) was “Dose-dependent-effect”. The Activity (SUM149PT [10]) was 9.8%, the Activity (SUM149PT [11]) was 2.69% and the IC50 (CAPAN-1 [12]) was 4.26 µM. The Activity (SUM149PT [13]) was 1.22%, the inhibition at 5 µM (SUM149PT [14]) was greater than 70% and the Activity (SUM149PT [15]) was 6.85%. The Activity (SUM149PT [16]) was 33.2%, the viability at 2 µM (SUM149PT [17]) was 76.7% and the Activity (Mitochondrial membrane [18]) was “Active”. It also gave an Activity (SUM149PT [19]) of 22.3%, an Activity (SUM149PT [20]) of 11.9% and an Activity (SUM149PT [21]) of 6.91%. For the same molecule, the Activity (SUM149PT [22]) was “Dose-dependent-effect”, the inhibition at 20 µM (HCC1937) was greater than 60% and the Activity (SUM149PT [23]) was 3.96%. The Activity (SUM149PT [24]) was 1.86%, the Activity (SUM149PT [25]) was 25.3% and the Activity (SUM149PT [26]) was 29.6%. It also gave an Activity (SUM149PT [27]) of 36.7%, an Activity (SUM149PT [28]) of 64.3% and an inhibition at 20 µM (CAPAN-1 [29]) greater than 60%.
